Reference: patent US20060193902A1, “Pharmaceutical compositions containing active agents having a lactone group and transition metal ions” (Celator Pharmaceuticals, Inc., priority 2003, published 2006)

Assays:
[1] = system: DNA; conditions: copper(II) complex, long-wave UV light; CuSO4 and drug 10 μM; cited from earlier work
[2] = Lactone/carboxy ratio of irinotecan in buffers with or without copper sulphate, by HPLC (Example 2); type: physicochemical; conditions: presence of CuSO4, pH 7.5
[3] = Thin layer chromatography for ring closed lactone and ring open carboxylate forms of irinotecan (Example 5); type: physicochemical; conditions: HEPES buffered saline, acidic conditions, 30 minutes; lactone form
Protocol: Three sets of liposomal formulations of irinotecan were prepared as previously described. […] Any unencapsulated irinotecan was removed by column chromatography. […] The third formulation (B) contained irinotecan and floxuridine in the final composition. In this formulation the liposomes were prepared in the presence of floxuridine and then unencapsulated drug was removed by chromatography. […] In all cases the external pH was adjusted to match the internal liposomal pH prior to irinotecan loading.
Liposomal formulations of irinotecan were first analyzed for ring closed lactone and ring open carboxylate forms of the drug by thin layer chromatography. A set of standards were first prepared and used as a reference for the liposomal formulations. […] The TLC plates were dried overnight at room temperature and then run in a second solvent system composed of butanol:acetic acid:water:acetone (4:2:1:1). […] As the pH of the solution increased, the presence of the carboxylate band appears.
The plates were run in the same solvent systems and visualized by UV light.

[4] = 3 hours of incubation in human blood; cited from earlier work

Row | irinotecan remaining in the lactone form ([2]; 4 hours) [%] | irinotecan present in the ring-closed, lactone form ([2]; 24 hours) [%] | irinotecan species seen by TLC in aqueous standards [3] | SMILES | DNA cleavage [1] [%] | lactone ring present [4] [%]
1 |  |  |  | CC[C@@]1(O)C(=O)OCc2c1cc1n(c2=O)Cc2cc3cc(O)ccc3nc2-1 [10-hydroxycamptothecin] | 1.7 | 
2 |  |  |  | CC[C@H]1C(=O)OCc2c1cc1n(c2=O)Cc2cc3ccccc3nc2-1 [20-deoxycamptothecin] | 28 | 
3 | 56.39 | 58.66 | dominant species | CCc1c2c(nc3ccc(OC(=O)N4CCC(N5CCCCC5)CC4)cc13)-c1cc3c(c(=O)n1C2)COC(=O)[C@]3(O)CC [Irinotecan, irinotecan] |  | 
4 |  |  |  | CC[C@@]1(O)C(=O)OCc2c1cc1n(c2=O)Cc2cc3ccccc3nc2-1 [camptothecin] | 51 | 5
